Measured values: article PMC6440985, “Heterogeneous drug tissue binding in brain regions of rats, Alzheimer’s patients and controls: impact on translational drug development” (Scientific Reports, 2019)
Like-named read-outs stand apart in the source and are kept apart here.

Assays:
[1] = Regional brain tissue binding by equilibrium dialysis, human post-mortem brain homogenate (control and AD donors); assay type: in vitro ADME; settings: for fu,brain,ROI in CRB of AD patients compared to rat CRB: AD patients versus healthy Sprague-Dawley rats; for fraction unbound at 6 h, 1 µM: human, post-mortem brain tissue homogenate
[2] = rat, brain homogenate
in vitro = settings: Sprague-Dawley, rat, brain homogenate
[3] = on average; according to prior information; cited from earlier work
[4] = parameters: method as in Loryan et al.[23]; settings: Rat, ref Loryan et al.[23], cited from earlier work; for fu,brain,ROI Mean: biological replicates; for fu,brain,ROI Median: technical replicates
[5] = AD group, within-group comparison
[6] = AD donors, BG, pH 7.4, AD donors, BG, biological replicates, 1 µM, 6 h, 37 °C, read-out: fu,brain,ROI Mean
[7] = AD donors, BG, pH 7.4, AD donors, BG, technical replicates, 1 µM, 6 h, 37 °C, read-out: fu,brain,ROI Median
[8] = AD donors, CRB, pH 7.4, AD donors, CRB, biological replicates, 1 µM, 6 h, 37 °C, read-out: fu,brain,ROI Mean
[9] = AD donors, CRB, pH 7.4, AD donors, CRB, technical replicates, 1 µM, 6 h, 37 °C, read-out: fu,brain,ROI Median
[10] = AD donors, FrCx, pH 7.4, AD donors, FrCx, biological replicates, 1 µM, 6 h, 37 °C, read-out: fu,brain,ROI Mean
[11] = AD donors, FrCx, pH 7.4, AD donors, FrCx, technical replicates, 1 µM, 6 h, 37 °C, read-out: fu,brain,ROI Median
[12] = AD donors, PrCx, pH 7.4, AD donors, PrCx, biological replicates, 1 µM, 6 h, 37 °C, read-out: fu,brain,ROI Mean
[13] = AD donors, PrCx, pH 7.4, AD donors, PrCx, technical replicates, 1 µM, 6 h, 37 °C, read-out: fu,brain,ROI Median
[14] = control donors, BG, pH 7.4, Control donors, BG, biological replicates, 1 µM, 6 h, 37 °C, read-out: fu,brain,ROI Mean
[15] = control donors, BG, pH 7.4, Control donors, BG, technical replicates, 1 µM, 6 h, 37 °C, read-out: fu,brain,ROI Median
[16] = control donors, CRB, pH 7.4, Control donors, CRB, biological replicates, 1 µM, 6 h, 37 °C, read-out: fu,brain,ROI Mean
[17] = control donors, CRB, pH 7.4, Control donors, CRB, technical replicates, 1 µM, 6 h, 37 °C, read-out: fu,brain,ROI Median
[18] = control donors, FrCx, pH 7.4, Control donors, FrCx, biological replicates, 1 µM, 6 h, 37 °C, read-out: fu,brain,ROI Mean
[19] = control donors, FrCx, pH 7.4, Control donors, FrCx, technical replicates, 1 µM, 6 h, 37 °C, read-out: fu,brain,ROI Median
[20] = control donors, PrCx, pH 7.4, Control donors, PrCx, biological replicates, 1 µM, 6 h, 37 °C, read-out: fu,brain,ROI Mean
[21] = control donors, PrCx, pH 7.4, Control donors, PrCx, technical replicates, 1 µM, 6 h, 37 °C, read-out: fu,brain,ROI Median

Row | ratio of fu,brain,ROI in CRB compared to PrCx [1, 5] | fu,brain,ROI in CRB of AD patients compared to rat CRB [1] | fraction unbound at 6 h, 1 µM [1, 6] | fraction unbound at 6 h, 1 µM [1, 7] | fraction unbound at 6 h, 1 µM [1, 8] | fraction unbound at 6 h, 1 µM [1, 9] | fraction unbound at 6 h, 1 µM [1, 10] | fraction unbound at 6 h, 1 µM [1, 11] | fraction unbound at 6 h, 1 µM [1, 12] | fraction unbound at 6 h, 1 µM [1, 13] | fraction unbound at 6 h, 1 µM [1, 14] | fraction unbound at 6 h, 1 µM [1, 15] | fraction unbound at 6 h, 1 µM [1, 16] | fraction unbound at 6 h, 1 µM [1, 17] | fraction unbound at 6 h, 1 µM [1, 18] | fraction unbound at 6 h, 1 µM [1, 19] | fraction unbound at 6 h, 1 µM [1, 20] | fraction unbound at 6 h, 1 µM [1, 21] | between region comparison of fu,brain,ROI [2] | fraction unbound at 6 h, 1 µM (in vitro; pH 7.4, fu,brain,ROI Mean) | Structure (SMILES) | other results
1 | ≥ 1.5 | twice as high | 0.114 | 0.111 | 0.152 | 0.142 | 0.114 | 0.117 | 0.099 | 0.103 | 0.092 | 0.093 | 0.113 | 0.116 | 0.094 | 0.092 | 0.088 | 0.086 | no differences in binding | 0.076 | CC12CC3CC(C)(C1)CC(N)(C3)C2 [Memantine, memantine] | fold higher fu,brain,ROI in CRB compared to PrCx ([1]; control group, within-group comparison): ≥ 1.3 fold; fraction unbound at 6 h, 1 µM (in vitro; pH 7.4, fu,brain,ROI Median): 0.073
2 | – | twice as high | 0.089 | 0.089 | 0.149 | 0.116 | 0.103 | 0.095 | – | 0.08 | 0.073 | 0.071 | 0.113 | 0.109 | 0.088 | 0.088 | 0.079 | 0.083 | no differences in binding | 0.068 | COc1ccc2c(c1)c(CC(=O)O)c(C)n2C(=O)c1ccc(Cl)cc1 [Indomethacin, indomethacin] | plasma protein binding exceeding brain tissue binding [3]: 5 fold; fraction unbound at 6 h, 1 µM (in vitro; pH 7.4, fu,brain,ROI Median): 0.065
3 | ≥ 1.5 | twice as high | 0.249 | 0.249 | 0.374 | – | 0.237 | 0.216 | 0.232 | 0.224 | 0.186 | 0.192 | 0.217 | 0.207 | 0.197 | 0.198 | 0.189 | 0.183 | no differences in binding | – | Cc1nc2n(c(=O)c1CCN1CCC(c3noc4cc(F)ccc34)CC1)CCCC2O (stereo not drawn) [Paliperidone, paliperidone] | fu,brain,ROI Median ([1]; AD donors, CRB, technical replicates, 1 µM, 6 h, 37 °C): 0.350; ratio of fu,brain,ROI in CRB compared to BG [1, 5]: 1.4; fold lower BTB in CRB compared to frontal and parietal cortices ([1]; AD patients, average): 1.5 fold; ratio of fu,brain,ROI AD versus control ([1]; CRB, between group comparison): 1.6; regional within-group comparison of fu,brain,ROI ([1]; control group, FrCx, PrCx, BG, CRB): uniform binding; fu,brain,ROI Mean ([4]; BG): 0.128; fu,brain,ROI Median ([4]; BG): 0.128; fu,brain,ROI Mean ([4]; CRB): 0.145; fu,brain,ROI Median ([4]; CRB): 0.143; fu,brain,ROI Mean ([4]; FrCx): 0.144; fu,brain,ROI Median ([4]; FrCx): 0.138; fu,brain,ROI Mean ([4]; HIP): 0.157; fu,brain,ROI Median ([4]; HIP): 0.150; fu,brain,ROI Mean ([4]; WB): 0.141; fu,brain,ROI Median ([4]; WB): 0.151
